Measurements as given in patent publication US7906486B2, “Method of treating or preventing tissue deterioration, injury or damage due to disease of mucosa” (SciClone Pharmaceuticals, Inc., priority 2007, dated 2011).
Where “and” joins values, the source holds several entries; their conditions need not be identical. Identical values can stand only once.

Key:
[1] = system: oral mucositis induced by fractionated radiation (eight doses of 7.5 Gy, left buccal cheek pouch); test: Oral mucositis induced by fractionated radiation in hamsters, mucositis scoring (Example 3, SCI-03); type: in vivo, Syrian Golden Hamsters; details: for % Days >=3 / Days <3 / Days >=3 / Chi Sq v control: 100 ug/kg, qd; for Days >=3: animal days with mucositis score of three or more; for Chi Sq v control: days with score >=3
Source text: (§1) The fractionated radiation model in hamsters, developed by the Principal Investigator, has proven to be an accurate, efficient and cost-effective technique to provide a preliminary evaluation of anti-mucositis compounds. In this model, hamsters receive 8 doses of 7.5 Gy to the left cheek pouch on days 0, 1, 2, 3, […], rather than the single dose of 40 Gy on day 0 that is used in acute radiation studies. The rationale for using this scheduling for the radiation is that it more closely resembles the clinical courses of radiotherapy given to cancer patients. The course of mucositis in this model is well defined and results in peak mucositis scores approximately 14-16 days following radiation. Mortality (generally from the side effects of anesthesia) in the fractionated radiation model is slightly higher than that seen in the acute radiation model and group sizes are increased (to 10 per group) to allow for this.
(§2) Forty (40) male Syrian Golden Hamsters were given eight doses of radiation of 7.5 Gy each directed to their left buccal cheek pouch on days 0, 1, 2, 3, 6, 7, 8 and 9. This was accomplished by anesthetizing the animals and everting the left buccal pouch, while protecting the rest of the animal's bodies with a lead shield. Test materials were given by sub-cutaneous injection once daily as detailed in Table 9. Mucositis was evaluated clinically starting on day 7, and continuing on alternate days until day 35. Test articles were given as outlined Table 9, Groups 1 and 2 were dosed from Day −1 to Day 29, Group 3 was dosed on the days of radiation only, Group 4 was dosed on the days between Day −15 and Day 29 on which no radiation is given (Day −1, Day 4, Day 5 and Day 10 to Day 29).
(§3) The effect on mucositis of each drug treatment compared to placebo was assessed according to the following parameters:
(§4) On each evaluation day, the number of animals with a blinded mucositis score of ≧3 in each drug treatment group was compared to the control group. Differences were compared on a cumulative basis and statistical significance was determined by chi-square analysis. Efficacy, in this analysis, is defined by a significant reduction in the number of days that a group of animals had ulcerations (scores ≧3) when compared to the control group.
(§5) For each evaluation day the scores of the control group were compared to those of the treated groups using non-parametric rank sum analysis. Treatment success was considered as a statistically significant lowering of scores in the treated group on 2 or more days from day 6 to day 28.
as §2, with “daily at 8:00 am” for “daily”, “9. […]” for “9. Mucositis was evaluated clinically starting on day 7, and continuing on alternate days until day 35.”, “2 was” for “2 were”, “radiation only (days 0-3 and days 6-10),” for “radiation only,”, “Day −1” for “Day −15”, “Day 4 to” for “Day 4,”
(§6) Radiation was generated with a Philips 160 kVp (kilovolt potential) (18.75-ma) X-ray source at a focal distance of 30 cm, with a 3.0 mm hardened Al filtration system. Irradiation was targeted to the left buccal pouch mucosa at a rate of 3.32 Gy/minute. […] Using this calibration, the energy received by each animal at each radiation dose was approximately 64.5 nC (nanoCoulombs) at each time point. Prior to irradiation, animals were anesthetized with an intraperitoneal injection of ketamine (160 mg/kg) and xylazine (8 mg/kg). The left buccal pouch was everted, fixed and isolated using a lead shield.
(§7) The mucositis score, weight change and survival were measured throughout the study as described above. […]

[2] = system: oral mucositis induced by fractionated radiation (eight doses of 7.5 Gy, left buccal cheek pouch); test: as above; type: in vivo, Syrian Golden Hamsters; set-up: key: 0: Pouch completely healthy. No erythema or vasodilation.; 1: Light to severe erythema and vasodilation. No erosion of mucosa.; 2: Severe erythema and vasodilation. Erosion of superficial aspects of mucosa leaving denuded areas. Decreased stippling of mucosa.; 3: Formation of off-white ulcers in one or more places. Ulcers may have a yellow/gray due to pseudomembrane. Cumulative size of ulcers should equal about ¼ of the pouch. Severe erythema and vasodilation.; 4: Cumulative seize of ulcers should equal about ½ of the pouch. Loss of pliability. Severe erythema and vasodilation.; 5: Virtually all of pouch is ulcerated. Loss of pliability (pouch can only partially be extracted from mouth)
Source text: as §1, §2, §3, §4, §5
as §2, with “daily at 8:00 am” for “daily”, “9. […]” for “9. Mucositis was evaluated clinically starting on day 7, and continuing on alternate days until day 35.”, “2 was” for “2 were”, “radiation only (days 0-3 and days 6-10),” for “radiation only,”, “Day −1” for “Day −15”, “Day 4 to” for “Day 4,”
as §6, §7

[3] = 100 ug/kg from day -1 to day 29
[4] = 100 ug/kg on the days of radiation (0-3 and 6-9)

## N[C@H](CCC(=O)N[C@@H](Cc1c[nH]c2ccccc12)C(=O)O)C(=O)O [SCV-07, γ-D-glutamyl-L-tryptophan]
[1]; [3]
  day of peak mean mucositis score: 19
  peak mean mucositis score: 3.3
[1]; 100 ug/kg on days 1, 4, 5 and 10 through 29
  peak mean mucositis score: 2.9
[1]; [4]
  day of peak mean mucositis score: 17
  peak mean mucositis score: 3.0
[1]; sc Days 0 to 3 and 6 to 9
  % Days >=3: 24%
  Days <3: 228
  Days >=3: 72
  Chi Sq v control: 0.3160
[1]; sc Days -1, 4, 5 10 to 29
  % Days >=3: 30.7%
  Days <3: 208
  Days >=3: 92
  Chi Sq v control: 0.2300
[1]; sc Days -1 to 29
  % Days >=3: 32.7%
  Days <3: 202
  Days >=3: 98
  Chi Sq v control: 0.575
[2]; Group 2, day 7, individual animals (two score lines each)
  Mucositis score: 0
[2]; Group 2, day 9, individual animals (two score lines each)
  Mucositis score: 1 (5×) and 0 (2×)
[2]; Group 2, day 11, individual animals (two score lines each)
  Mucositis score: 1
[2]; Group 2, day 13, individual animals (two score lines each)
  Mucositis score: 3
[2]; Group 2, day 15, individual animals (two score lines each)
  Mucositis score: 3
[2]; Group 2, day 17, individual animals (two score lines each)
  Mucositis score: 3
[2]; Group 2, day 21, individual animals (two score lines each)
  Mucositis score: 3
[2]; Group 2, day 23, individual animals (two score lines each)
  Mucositis score: 3
[2]; Group 2, day 25, individual animals (two score lines each)
  Mucositis score: 3
[2]; Group 2, day 27, individual animals (two score lines each)
  Mucositis score: 3
[2]; Group 2, day 31, individual animals (two score lines each)
  Mucositis score: 0 (2×) and 1 (3×)
[2]; Group 2, day 33, individual animals (two score lines each)
  Mucositis score: 1
[2]; Group 2, day 35, individual animals (two score lines each)
  Mucositis score: 1 (3×) and 0 (4×)
